The source of these data is ChEMBL document CHEMBL1933009, “SAR studies on the central phenyl ring of substituted biphenyl oxazolidinone-potent CETP inhibitors” (Bioorg Med Chem Lett, 2012).

Experiment [1] addresses T1, Cholesteryl ester transfer protein (Homo sapiens, UniProt P11597).
T1 sequence (P11597 whole entry): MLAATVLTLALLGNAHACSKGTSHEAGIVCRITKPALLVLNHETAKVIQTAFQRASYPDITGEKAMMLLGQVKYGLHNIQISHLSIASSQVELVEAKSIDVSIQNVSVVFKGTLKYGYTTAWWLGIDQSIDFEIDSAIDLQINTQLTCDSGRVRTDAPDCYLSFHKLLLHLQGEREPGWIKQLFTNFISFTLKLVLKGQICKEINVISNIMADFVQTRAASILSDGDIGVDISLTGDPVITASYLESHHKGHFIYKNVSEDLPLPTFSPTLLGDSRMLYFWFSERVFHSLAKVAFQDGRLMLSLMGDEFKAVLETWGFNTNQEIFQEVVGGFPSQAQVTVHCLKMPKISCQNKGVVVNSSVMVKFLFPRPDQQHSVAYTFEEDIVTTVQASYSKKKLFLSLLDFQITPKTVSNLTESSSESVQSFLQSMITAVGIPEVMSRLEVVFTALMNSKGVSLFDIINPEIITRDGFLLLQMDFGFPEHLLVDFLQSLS
In words: Inhibition of CETP-mediated neutral lipid transfer by fluorometric analysis.

In the next experiment the test system is Mus musculus. The experiment is described as follows: Cardioprotective activity in transgenic B6 mouse expressing cynomolgus monkey CETP assessed as increase in HDL-cholesterol level at 10 mg/kg, po BID measured after 24 hrs of first dose. The experiment is classed as functional.

Broadly, the IC50 is the concentration that gives 50% inhibition. Consider `COc1cc(F)c(C(C)C)cc1-c1ccccc1CN1C(=O)O[C@H](c2cc(C(F)(F)F)cc(C(F)(F)F)c2)[C@@H]1C`, for which the IC50 in experiment [1] amounted to 0.0312 µM. As for `COc1cc(F)c(C(C)C)cc1-c1ccc(F)cc1CN1C(=O)O[C@H](c2cc(C(F)(F)F)cc(C(F)(F)F)c2)[C@@H]1C`, the Activity with Mus musculus stood at 8 mg/dL. This compound also showed an IC50 in experiment [1] of 0.025 µM. For `COc1cc(F)c(C(C)C)cc1-c1ccc(Cl)cc1CN1C(=O)O[C@H](c2cc(C(F)(F)F)cc(C(F)(F)F)c2)[C@@H]1C`, in that order: 12.7 mg/dL and 0.0165 µM. In the same order, the values of `COc1cc(F)c(C(C)C)cc1-c1ccc(Br)cc1CN1C(=O)O[C@H](c2cc(C(F)(F)F)cc(C(F)(F)F)c2)[C@@H]1C` are 23 mg/dL and 0.0198 µM. Take `COc1cc(F)c(C(C)C)cc1-c1ccc(I)cc1CN1C(=O)O[C@H](c2cc(C(F)(F)F)cc(C(F)(F)F)c2)[C@@H]1C`: in experiment [1], the IC50 stood at 0.0235 µM. For `COc1cc(F)c(C(C)C)cc1-c1ccc(C#N)cc1CN1C(=O)O[C@H](c2cc(C(F)(F)F)cc(C(F)(F)F)c2)[C@@H]1C`, the Activity in the experiment with Mus musculus worked out at 14.8 mg/dL. In addition, inhibition in experiment [1] was half-maximal at 0.0233 µM (IC50). In the same order, the values of `COc1cc(F)c(C(C)C)cc1-c1ccc([N+](=O)[O-])cc1CN1C(=O)O[C@H](c2cc(C(F)(F)F)cc(C(F)(F)F)c2)[C@@H]1C` are 21.5 mg/dL and 0.0133 µM. Compound `COc1cc(F)c(C(C)C)cc1-c1ccc(N)cc1CN1C(=O)O[C@H](c2cc(C(F)(F)F)cc(C(F)(F)F)c2)[C@@H]1C` came in with an IC50 in experiment [1] of 0.296 µM. With `COc1cc(F)c(C(C)C)cc1-c1ccc(C)cc1CN1C(=O)O[C@H](c2cc(C(F)(F)F)cc(C(F)(F)F)c2)[C@@H]1C`, the Activity in the experiment on Mus musculus is 13.8 mg/dL. The compound also registered an IC50 in experiment [1] of 0.0167 µM. The compound `COc1cc(F)c(C(C)C)cc1-c1ccc(C(C)C)cc1CN1C(=O)O[C@H](c2cc(C(F)(F)F)cc(C(F)(F)F)c2)[C@@H]1C` registered an IC50 in experiment [1] of 0.0541 µM. As to `COc1cc(F)c(C(C)C)cc1-c1ccc(C(C)(C)C)cc1CN1C(=O)O[C@H](c2cc(C(F)(F)F)cc(C(F)(F)F)c2)[C@@H]1C`, in the experiment with Mus musculus, the Activity was 21 mg/dL. In experiment [1], the IC50 came out at 0.0249 µM.

`COc1cc(F)c(C(C)C)cc1-c1ccc(SC)cc1CN1C(=O)O[C@H](c2cc(C(F)(F)F)cc(C(F)(F)F)c2)[C@@H]1C`: the Activity with Mus musculus is 16.4 mg/dL. In experiment [1], this compound returned a half-maximal inhibitory concentration (IC50) of 0.0162 µM. In turn, `CCCSc1ccc(-c2cc(C(C)C)c(F)cc2OC)c(CN2C(=O)O[C@H](c3cc(C(F)(F)F)cc(C(F)(F)F)c3)[C@@H]2C)c1` gave an IC50 in experiment [1] of 1.23 µM. The same measure, in the same setting: to `COc1cc(F)c(C(C)C)cc1-c1ccc(SC(C)C)cc1CN1C(=O)O[C@H](c2cc(C(F)(F)F)cc(C(F)(F)F)c2)[C@@H]1C` belongs 0.689 µM.

As for `COc1cc(F)c(C(C)C)cc1-c1ccc(SC(F)(F)F)cc1CN1C(=O)O[C@H](c2cc(C(F)(F)F)cc(C(F)(F)F)c2)[C@@H]1C`, in the experiment with Mus musculus, the Activity was determined as 12.4 mg/dL. Also, in experiment [1], half-maximal inhibition (IC50) was put at 0.0196 µM. For `COc1cc(F)c(C(C)C)cc1-c1ccc(C2=CCCC2)cc1CN1C(=O)O[C@H](c2cc(C(F)(F)F)cc(C(F)(F)F)c2)[C@@H]1C`, the midpoint of inhibition in experiment [1], the IC50, lay at 0.254 µM. Consider `COc1cc(F)c(C(C)C)cc1-c1ccc(C(C)(C)F)cc1CN1C(=O)O[C@H](c2cc(C(F)(F)F)cc(C(F)(F)F)c2)[C@@H]1C`, for which the Activity with Mus musculus was determined as 23.2 mg/dL. In experiment [1], this compound registered an IC50 of 0.018 µM. In the case of `COc1cc(F)c(C(C)C)cc1-c1ccc(C(C)(C)O)cc1CN1C(=O)O[C@H](c2cc(C(F)(F)F)cc(C(F)(F)F)c2)[C@@H]1C`, in experiment [1], the IC50 is 0.0718 µM.

As for `COc1cc(F)c(C(C)C)cc1-c1ccc(C2CC2)cc1CN1C(=O)O[C@H](c2cc(C(F)(F)F)cc(C(F)(F)F)c2)[C@@H]1C`, the Activity with Mus musculus turned out to be 20.6 mg/dL. This compound had an IC50 in experiment [1] of 0.0248 µM. Consider `COc1cc(F)c(C(C)C)cc1-c1ccc(S(C)(=O)=O)cc1CN1C(=O)O[C@H](c2cc(C(F)(F)F)cc(C(F)(F)F)c2)[C@@H]1C`, for which the 50% inhibitory concentration (IC50) in experiment [1] is 0.0335 µM. Still for that read-out and setting: the result for `CCCS(=O)(=O)c1ccc(-c2cc(C(C)C)c(F)cc2OC)c(CN2C(=O)O[C@H](c3cc(C(F)(F)F)cc(C(F)(F)F)c3)[C@@H]2C)c1` reads 6.93 µM. Same read-out and setting: to `COc1cc(F)c(C(C)C)cc1-c1ccc(S(=O)(=O)C(C)C)cc1CN1C(=O)O[C@H](c2cc(C(F)(F)F)cc(C(F)(F)F)c2)[C@@H]1C` belongs 2.6 µM; to `COc1cc(F)c(C(C)C)cc1-c1ccc(S(=O)(=O)C(F)(F)F)cc1CN1C(=O)O[C@H](c2cc(C(F)(F)F)cc(C(F)(F)F)c2)[C@@H]1C`, 0.0271 µM. `COc1cc(F)c(C(C)C)cc1-c1ccc(C(F)(F)F)cc1CN1C(=O)O[C@H](c2cc(C(F)(F)F)cc(C(F)(F)F)c2)[C@@H]1C` [ANACETRAPIB]: in the experiment on Mus musculus, the Activity came to 28 mg/dL.
